Source: US20160206580A1, “[…] LIPOSOME FORMULATIONS OF TRANEXAMIC ACID” (Pacira Pharmaceuticals, Inc., priority 2015, published 2016)
Read-outs that look alike come from different tables or passages of the source.

What was measured:
[1] = Toxicokinetics of TXA in plasma after subcutaneous injection; format: in vivo, beagle dog
Method: (§1) The objectives of this study were to determine the potential toxicity of TXA formulations, when given by subcutaneous injection to the beagle dog and to evaluate the potential reversibility of any findings, in comparison to the Reference Control Item, Tranexamic acid. In addition, the toxicokinetic profiles were determined.
(§2) The Test, Reference Control and Reference Items were administered to the appropriate animals via subcutaneous injection into the scapular and mid-dorsal areas on Days 1, 4, 7, and 10. The dose volume for each animal was based on the most recent body weight measurement. The volume for each dose was administered using a syringe/needle over one injection. Injection sites were rotated between two delimited sites (and the same site for all animals on a given day). Dosing area was shaved as needed and injection sites were marked with a pen (target area of 5 cm×5 cm). The first dosing site was in the mid-scapular region of the back and the second dosing site was caudal to the first site in the mid-dorsum region.
Blood was collected from the jugular vein (or cephalic vein) from all animals in lithium heparin-containing tubes.
Samples were mixed gently and placed on crushed wet ice until centrifugation, which was carried out as soon as practical. The samples were centrifuged for 10 minutes in a refrigerated centrifuge (set to maintain the temperature at 4° C.) at 2700 rpm. The resultant plasma was separated, transferred to uniquely labeled clear polypropylene tubes, and frozen immediately over dry ice and transferred to a freezer set to maintain −80° C.
Plasma samples were analyzed for concentration of the tranexamic acid using a validated analytical procedure.
Toxicokinetic parameters were generated from the test item (tranexamic acid) individual concentrations in plasma from Days 1 and 10, whenever practical.

[2] = Percent free (unencapsulated) TXA in the formulation; format: physicochemical; settings: formulations dosed in the rat PK study (Table 2)
From the text: The present embodiments provide pharmaceutical formulations comprising multivesicular liposomes (MVLs) containing tranexamic acid (TXA) which minimize the side effects of TXA while maintaining or improving efficacy and lengthening the duration of the effect. The present embodiments also provide pharmaceutical formulations comprising TXA encapsulated in the MVLs and unencapsulated TXA. The term “unencapsulated” as used herein, means that the biologically active ingredient (e.g., tranexamic acid) is outside the MVL particles, for example, in the suspending solution. The unencapsulated TXA provides immediate efficacy of TXA while the use of TXA encapsulated MVLs formulations in the instant embodiments results in the release of TXA for an extended period. The processes of preparing the DEPO-TXAs and the methods of using the DEPO-TXA formulations for treating, ameliorating, or preventing blood loss are also disclosed herewith. […]
For the 40 mg/mL formulation, % PPV is about 50.0% and the assumed interstitial volume (mL) is about 20%, rendering about 62% free TXA outside of the multivesicular liposomes. […] During the first 12 h, the released TXA contributes to the initial TXA peak measured in the plasma. […]

beagle dog = experiment: Evaluation of toxicity of subcutaneous administration; format: in vivo; settings: sc
Method: as §1
21 male and 21 female beagle dogs were used in this study. The animals were from 6 to 7 months old and weighed between 7.5 and 9.8 kg (males) and 6.0 and 8.2 kg (females) at initiation of dosing.
as §2
Blood was collected from the jugular vein. Urine was collected overnight from individually housed animals. […]

In the case of `NC[C@H]1CC[C@H](C(=O)O)CC1` [TXA, tranexamic acid], the “mean peak exposures (Cmax) higher for the free TXA group than DepoTXA” value ([1]; 120 mg/kg dose level, Day 1) is reported as 28%, the “peak TXA levels lower for the free TXA group than DepoTXA” value ([1]; 120 mg/kg dose level, Day 10, after fourth and final sc dose) is reported as 14% and the “administered TXA cleared after 12 hours (percent of total AUC)” value ([1]; beagle dog, sc, FIGS. 5A, 5B) is reported as 94%. The “time to exposure to nearly the full TXA dose” value ([1]; beagle dog, sc, FIGS. 6A, 6B) was “less than 24 hours”, the AUC(0-t) ([1]; beagle, dog, plasma, sc, 120 mg/kg, beagle dog, sc, 120 mg/kg/dose, Day 1, read-out: AUC0-72) was 490 µg·h/mL and the Cmax ([1]; beagle, dog, plasma, sc, 120 mg/kg, beagle dog, sc, 120 mg/kg/dose, Day 1, read-out: Cmax) was 140 µg/mL. It also gave a Tmax ([1]; beagle, dog, plasma, sc, 120 mg/kg, beagle dog, sc, 120 mg/kg/dose, Day 1, read-out: Tmax) of 1.2 h, a half-life ([1]; beagle, dog, plasma, sc, 120 mg/kg, beagle dog, sc, 120 mg/kg/dose, Day 1, read-out: t1/2 (converted)) of 25.7 h and an AUC(0-t) ([1]; beagle, dog, plasma, sc, 120 mg/kg, beagle dog, sc, 120 mg/kg/dose, Day 10, read-out: AUC0-72) of 484 µg·h/mL. For the same molecule, the Cmax ([1]; beagle, dog, plasma, sc, 120 mg/kg, beagle dog, sc, 120 mg/kg/dose, Day 10, read-out: Cmax) was 119 µg/mL, the Tmax ([1]; beagle, dog, plasma, sc, 120 mg/kg, beagle dog, sc, 120 mg/kg/dose, Day 10, read-out: Tmax) was 1.1 h and the half-life ([1]; beagle, dog, plasma, sc, 120 mg/kg, beagle dog, sc, 120 mg/kg/dose, Day 10, read-out: t1/2 (converted)) was 28.9 h. For the same molecule, the half-life ([1]; beagle, dog, plasma, sc, 120 mg/kg, mean±SD, sc, 120 mg/kg, Day 1, read-out: Mean terminal elimination half-life (t1/2elim) (converted)) was 25.7 ± 2 h, the half-life ([1]; beagle, dog, plasma, sc, 120 mg/kg, mean±SD, sc, 120 mg/kg, Day 10, read-out: Mean terminal elimination half-life (t1/2elim) (converted)) was 28.9 ± 2.9 h and the Cmax ([1]; both sexes, beagle, dog, plasma, sc, 120 mg/kg, genders combined mean, sc, 120 mg/kg, Day 10, read-out: mean peak levels (Cmax)) was 119 ± 15.4 µg/mL. It also gave an AUC(0-t) ([1]; both sexes, beagle, dog, plasma, sc, 120 mg/kg, mean±SD, n=10, genders combined, sc, 120 mg/kg, Day 1, read-out: AUC0-24) of 475 ± 35.1 µg·h/mL, an AUC(0-t) ([1]; both sexes, beagle, dog, plasma, sc, 120 mg/kg, mean±SD, n=10, genders combined, sc, 120 mg/kg, Day 1, read-out: AUC0-48) of 485 ± 36.1 µg·h/mL and an AUC(0-t) ([1]; both sexes, beagle, dog, plasma, sc, 120 mg/kg, mean±SD, n=10, genders combined, sc, 120 mg/kg, Day 1, read-out: AUC0-72) of 490 ± 36.5 µg·h/mL. For the same molecule, the Tmax ([1]; both sexes, beagle, dog, plasma, sc, 120 mg/kg, mean±SD, n=10, genders combined, sc, 120 mg/kg, Day 1, read-out: Tmax (plasma concentrations of TXA peaked)) was 1.2 ± 0.42 h, the Cmax ([1]; both sexes, beagle, dog, plasma, sc, 120 mg/kg, mean±SD, n=10, genders combined, sc, 120 mg/kg, Day 1, read-out: mean peak levels (Cmax)) was 140 ± 19.2 µg/mL and the AUC(0-t) ([1]; both sexes, beagle, dog, plasma, sc, 120 mg/kg, mean±SD, n=10, genders combined, sc, 120 mg/kg, Day 10, read-out: AUC0-24) was 468 ± 42.5 µg·h/mL. It also gave an AUC(0-t) ([1]; both sexes, beagle, dog, plasma, sc, 120 mg/kg, mean±SD, n=10, genders combined, sc, 120 mg/kg, Day 10, read-out: AUC0-48) of 479 ± 44.2 µg·h/mL, an AUC(0-t) ([1]; both sexes, beagle, dog, plasma, sc, 120 mg/kg, mean±SD, n=10, genders combined, sc, 120 mg/kg, Day 10, read-out: AUC0-72) of 484 ± 45.2 µg·h/mL and a Tmax ([1]; both sexes, beagle, dog, plasma, sc, 120 mg/kg, mean±SD, n=10, genders combined, sc, 120 mg/kg, Day 10, read-out: Tmax (mean peak concentrations reached)) of 1.1 ± 0.32 h. For the same molecule, the AUC(0-inf) ([1]; both sexes, beagle, dog, plasma, mean±SD, n=10, genders combined, sc, 120 mg/kg, Day 1) was 495 ± 36.8 µg·h/mL, the “Percent free TXA” value [2] was 100% and the “clinical signs following dosing” value (beagle dog) was “at a similar incidence and severity”.
